The text below walks through data of ChEMBL document CHEMBL5465560, “Selectivity Literature for EUbOPEN Chemogenomic Library” (2024).

For test [1], the target named is Mitogen-activated protein kinase 7 (Homo sapiens) (UniProt Q13164). Description: Selectivity interaction (Rxn Biology Kinase assay) EUB0001632a MAPK7. The settings on record: at 10 µM.
Test [2] relates to Fibroblast growth factor receptor 3 (Homo sapiens), P22607 [G697C]. Description: (§1) Selectivity interaction (KinomeScan (DiscoverX)) EUB0000695a FGFR3. Conditions: at 100 nM.
Chain of Fibroblast growth factor receptor 3 (Homo sapiens), P22607 [G697C] (P22607 whole entry G697C): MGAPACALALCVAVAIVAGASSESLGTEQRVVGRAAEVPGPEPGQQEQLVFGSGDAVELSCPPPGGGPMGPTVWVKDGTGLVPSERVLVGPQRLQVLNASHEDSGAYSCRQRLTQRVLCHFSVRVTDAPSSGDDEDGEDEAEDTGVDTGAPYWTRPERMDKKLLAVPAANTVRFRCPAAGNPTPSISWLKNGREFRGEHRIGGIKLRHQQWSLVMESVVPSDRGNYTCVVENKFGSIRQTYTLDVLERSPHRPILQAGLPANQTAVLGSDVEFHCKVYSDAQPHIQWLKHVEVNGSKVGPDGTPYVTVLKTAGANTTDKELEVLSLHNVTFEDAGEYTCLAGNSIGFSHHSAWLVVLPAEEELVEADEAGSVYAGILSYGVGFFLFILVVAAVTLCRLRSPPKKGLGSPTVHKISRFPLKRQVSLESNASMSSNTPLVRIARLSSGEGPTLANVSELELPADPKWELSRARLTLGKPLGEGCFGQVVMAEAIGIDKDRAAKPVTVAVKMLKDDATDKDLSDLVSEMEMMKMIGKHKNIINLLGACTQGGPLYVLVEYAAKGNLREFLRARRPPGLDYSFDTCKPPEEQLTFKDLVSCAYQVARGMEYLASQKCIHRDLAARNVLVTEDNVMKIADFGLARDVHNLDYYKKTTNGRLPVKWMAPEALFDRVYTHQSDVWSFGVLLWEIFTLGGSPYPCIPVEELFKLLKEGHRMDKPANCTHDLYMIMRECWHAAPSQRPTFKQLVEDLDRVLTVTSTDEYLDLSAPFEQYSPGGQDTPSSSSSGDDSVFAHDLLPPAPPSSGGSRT
Test [3] addresses Fibroblast growth factor receptor 3 (Homo sapiens, UniProt P22607). Described as §1. Conditions: at 100 nM.
Test [4] has as its target TGF-beta receptor type-2 (Homo sapiens) (UniProt P37173). Kind of test: Selectivity interaction (KinomeScan (DiscoverX)) EUB0000607a TGFBR2. The settings on record: at 10 µM.
Test [5] deals with Cell division control protein 42 homolog (Homo sapiens) (UniProt P60953). Description: Selectivity interaction (SelectScreen profiling (Invitrogen)) EUB0000607a CDC42. The settings on record: at 2 µM.
Chain of Cell division control protein 42 homolog (Homo sapiens) (P60953 whole entry, looked up): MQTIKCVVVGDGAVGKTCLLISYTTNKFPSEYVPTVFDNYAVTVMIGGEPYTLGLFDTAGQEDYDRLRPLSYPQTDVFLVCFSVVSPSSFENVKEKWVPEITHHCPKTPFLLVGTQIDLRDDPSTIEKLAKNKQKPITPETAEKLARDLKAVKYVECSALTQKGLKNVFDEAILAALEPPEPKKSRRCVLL
In test [6] the target is Tyrosine-protein kinase JAK1 (Homo sapiens, UniProt P23458). Kind of test: Selectivity interaction (KinomeScan (DiscoverX)) EUB0000655a JAK1. The settings on record: at 10 µM.
Chain of Tyrosine-protein kinase JAK1 (P23458 whole entry): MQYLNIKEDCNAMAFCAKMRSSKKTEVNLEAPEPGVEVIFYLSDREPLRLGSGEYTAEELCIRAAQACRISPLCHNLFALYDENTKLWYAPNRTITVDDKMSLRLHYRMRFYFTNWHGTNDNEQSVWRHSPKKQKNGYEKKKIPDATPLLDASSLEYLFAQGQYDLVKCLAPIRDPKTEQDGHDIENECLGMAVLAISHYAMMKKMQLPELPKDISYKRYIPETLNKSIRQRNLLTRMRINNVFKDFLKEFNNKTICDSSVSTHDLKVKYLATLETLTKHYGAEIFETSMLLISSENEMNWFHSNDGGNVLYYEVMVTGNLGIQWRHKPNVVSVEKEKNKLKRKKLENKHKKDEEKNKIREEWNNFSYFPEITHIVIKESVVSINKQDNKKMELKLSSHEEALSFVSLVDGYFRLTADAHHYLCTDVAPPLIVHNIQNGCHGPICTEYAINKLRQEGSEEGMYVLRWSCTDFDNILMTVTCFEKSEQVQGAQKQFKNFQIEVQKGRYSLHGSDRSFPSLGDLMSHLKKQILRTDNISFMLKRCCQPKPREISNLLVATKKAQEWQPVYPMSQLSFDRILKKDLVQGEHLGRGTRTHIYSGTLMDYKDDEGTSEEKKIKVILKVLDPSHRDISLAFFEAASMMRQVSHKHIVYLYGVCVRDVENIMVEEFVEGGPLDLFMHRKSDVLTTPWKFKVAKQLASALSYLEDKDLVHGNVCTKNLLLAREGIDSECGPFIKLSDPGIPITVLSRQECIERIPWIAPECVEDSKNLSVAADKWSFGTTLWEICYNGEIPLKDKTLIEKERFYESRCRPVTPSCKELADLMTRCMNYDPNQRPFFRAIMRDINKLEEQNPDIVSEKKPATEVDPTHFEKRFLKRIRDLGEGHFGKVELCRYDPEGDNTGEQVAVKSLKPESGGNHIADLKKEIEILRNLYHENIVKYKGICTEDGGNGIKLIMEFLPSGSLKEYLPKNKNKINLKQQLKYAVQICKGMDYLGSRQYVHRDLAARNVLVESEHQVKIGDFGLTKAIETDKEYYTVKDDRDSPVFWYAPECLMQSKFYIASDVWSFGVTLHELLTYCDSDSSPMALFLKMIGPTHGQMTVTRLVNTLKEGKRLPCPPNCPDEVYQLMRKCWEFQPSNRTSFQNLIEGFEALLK
Test [7] deals with T1, Dual specificity protein kinase TTK (Homo sapiens) (UniProt P33981).
T1 sequence (whole entry): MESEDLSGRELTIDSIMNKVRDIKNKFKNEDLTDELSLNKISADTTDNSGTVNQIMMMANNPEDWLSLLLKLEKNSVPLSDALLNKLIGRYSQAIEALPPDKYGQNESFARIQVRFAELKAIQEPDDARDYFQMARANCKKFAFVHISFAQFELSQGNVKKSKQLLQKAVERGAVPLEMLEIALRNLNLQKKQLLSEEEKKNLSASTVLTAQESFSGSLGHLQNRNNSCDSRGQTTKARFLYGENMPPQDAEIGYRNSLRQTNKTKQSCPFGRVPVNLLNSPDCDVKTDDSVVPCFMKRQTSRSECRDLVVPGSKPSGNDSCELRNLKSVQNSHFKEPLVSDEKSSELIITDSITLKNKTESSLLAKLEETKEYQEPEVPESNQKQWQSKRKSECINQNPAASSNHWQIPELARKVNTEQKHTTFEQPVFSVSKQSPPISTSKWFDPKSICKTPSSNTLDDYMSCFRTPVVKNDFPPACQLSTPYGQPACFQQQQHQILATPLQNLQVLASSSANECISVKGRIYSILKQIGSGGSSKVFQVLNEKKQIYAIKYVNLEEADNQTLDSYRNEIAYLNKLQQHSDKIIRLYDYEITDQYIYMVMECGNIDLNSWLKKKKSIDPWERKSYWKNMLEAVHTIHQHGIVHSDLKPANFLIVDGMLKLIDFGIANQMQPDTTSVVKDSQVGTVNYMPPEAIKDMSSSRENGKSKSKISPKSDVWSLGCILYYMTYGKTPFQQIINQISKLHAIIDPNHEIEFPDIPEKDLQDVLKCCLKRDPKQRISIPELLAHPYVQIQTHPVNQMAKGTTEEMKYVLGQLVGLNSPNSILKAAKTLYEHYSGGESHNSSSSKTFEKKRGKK
Description: Selectivity interaction (Kinase panel (DSF assay)) EUB0001558a TTK. On the technique in general: In DSF a fluorescence change marks the thermal transition of the protein.

In test [8] the target is T2, Hormonally up-regulated neu tumor-associated kinase (Homo sapiens) (UniProt P57058).
T2 sequence (whole entry): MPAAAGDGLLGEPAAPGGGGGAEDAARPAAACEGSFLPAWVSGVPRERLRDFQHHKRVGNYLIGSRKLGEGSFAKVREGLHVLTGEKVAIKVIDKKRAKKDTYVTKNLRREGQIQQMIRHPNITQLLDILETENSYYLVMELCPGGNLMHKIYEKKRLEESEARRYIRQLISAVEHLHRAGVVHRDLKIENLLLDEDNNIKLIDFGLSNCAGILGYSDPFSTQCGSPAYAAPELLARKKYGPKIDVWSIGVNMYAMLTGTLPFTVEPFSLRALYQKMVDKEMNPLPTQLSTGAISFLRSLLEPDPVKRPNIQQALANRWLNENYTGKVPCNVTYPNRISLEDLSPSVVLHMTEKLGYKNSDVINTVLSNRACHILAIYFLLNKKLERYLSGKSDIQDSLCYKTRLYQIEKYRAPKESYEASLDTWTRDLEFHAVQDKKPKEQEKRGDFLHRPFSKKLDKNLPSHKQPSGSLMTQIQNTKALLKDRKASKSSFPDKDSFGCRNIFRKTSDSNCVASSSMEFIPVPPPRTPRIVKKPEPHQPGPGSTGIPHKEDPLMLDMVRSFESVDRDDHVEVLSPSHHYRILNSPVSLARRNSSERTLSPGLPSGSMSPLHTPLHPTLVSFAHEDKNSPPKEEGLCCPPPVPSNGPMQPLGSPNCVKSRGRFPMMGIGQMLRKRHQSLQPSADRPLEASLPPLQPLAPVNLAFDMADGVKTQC
Description: Selectivity interaction (KinomeScan (DiscoverX)) EUB0000229b HUNK. Conditions: at 10 µM.

For test [9], the target named is T3, Serine/threonine-protein kinase 3 (Homo sapiens) (UniProt Q13188).
T3 sequence (whole entry): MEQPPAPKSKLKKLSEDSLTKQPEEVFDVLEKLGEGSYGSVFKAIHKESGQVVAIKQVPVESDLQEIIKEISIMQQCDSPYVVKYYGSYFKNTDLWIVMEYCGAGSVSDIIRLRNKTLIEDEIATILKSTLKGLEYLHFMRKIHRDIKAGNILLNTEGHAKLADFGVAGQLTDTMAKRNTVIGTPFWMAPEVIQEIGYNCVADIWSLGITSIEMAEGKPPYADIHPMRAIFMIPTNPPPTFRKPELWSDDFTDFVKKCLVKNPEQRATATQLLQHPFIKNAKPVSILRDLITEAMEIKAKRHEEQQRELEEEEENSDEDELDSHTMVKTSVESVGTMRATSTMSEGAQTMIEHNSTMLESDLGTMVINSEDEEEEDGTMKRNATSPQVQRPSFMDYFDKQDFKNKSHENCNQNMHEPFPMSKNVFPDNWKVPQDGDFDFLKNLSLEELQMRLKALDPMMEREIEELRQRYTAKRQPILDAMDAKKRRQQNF
Description: Selectivity interaction (Kinase panel (KiNativ target engagement assay in Jurkat cells)) EUB0001635a STK3. It counts as cell-based. Conditions: Selectivity number of off-targets 0.0, Selectivity number of targets 233.0, Source Knowledge https://www.sciencedirect.com/science/article/pii/S2451945619300674?via%3Dihub, at 1 µM.

Chain of Fibroblast growth factor receptor 3 (P22607 23-806 limits assumed): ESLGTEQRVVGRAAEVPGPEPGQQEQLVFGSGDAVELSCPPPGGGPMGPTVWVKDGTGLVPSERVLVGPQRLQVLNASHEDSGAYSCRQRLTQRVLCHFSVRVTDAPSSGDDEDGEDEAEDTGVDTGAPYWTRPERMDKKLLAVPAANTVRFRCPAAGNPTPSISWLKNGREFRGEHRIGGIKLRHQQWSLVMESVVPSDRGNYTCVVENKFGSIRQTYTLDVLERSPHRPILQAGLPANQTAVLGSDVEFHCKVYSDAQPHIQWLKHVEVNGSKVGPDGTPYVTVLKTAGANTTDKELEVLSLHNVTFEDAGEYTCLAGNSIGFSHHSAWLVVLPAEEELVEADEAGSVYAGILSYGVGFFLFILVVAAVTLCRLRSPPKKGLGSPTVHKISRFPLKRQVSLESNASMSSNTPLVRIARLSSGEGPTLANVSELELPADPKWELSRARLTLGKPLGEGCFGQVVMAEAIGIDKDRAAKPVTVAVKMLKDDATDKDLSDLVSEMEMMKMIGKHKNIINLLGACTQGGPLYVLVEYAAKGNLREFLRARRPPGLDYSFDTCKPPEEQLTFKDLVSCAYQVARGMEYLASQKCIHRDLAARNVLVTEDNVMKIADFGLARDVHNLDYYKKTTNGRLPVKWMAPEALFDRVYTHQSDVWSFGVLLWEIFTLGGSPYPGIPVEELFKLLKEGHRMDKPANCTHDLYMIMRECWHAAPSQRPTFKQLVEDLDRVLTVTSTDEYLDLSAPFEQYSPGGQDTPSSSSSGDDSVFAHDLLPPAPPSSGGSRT
Chain of Mitogen-activated protein kinase 7 (Homo sapiens) (Q13164 2-816 limits assumed): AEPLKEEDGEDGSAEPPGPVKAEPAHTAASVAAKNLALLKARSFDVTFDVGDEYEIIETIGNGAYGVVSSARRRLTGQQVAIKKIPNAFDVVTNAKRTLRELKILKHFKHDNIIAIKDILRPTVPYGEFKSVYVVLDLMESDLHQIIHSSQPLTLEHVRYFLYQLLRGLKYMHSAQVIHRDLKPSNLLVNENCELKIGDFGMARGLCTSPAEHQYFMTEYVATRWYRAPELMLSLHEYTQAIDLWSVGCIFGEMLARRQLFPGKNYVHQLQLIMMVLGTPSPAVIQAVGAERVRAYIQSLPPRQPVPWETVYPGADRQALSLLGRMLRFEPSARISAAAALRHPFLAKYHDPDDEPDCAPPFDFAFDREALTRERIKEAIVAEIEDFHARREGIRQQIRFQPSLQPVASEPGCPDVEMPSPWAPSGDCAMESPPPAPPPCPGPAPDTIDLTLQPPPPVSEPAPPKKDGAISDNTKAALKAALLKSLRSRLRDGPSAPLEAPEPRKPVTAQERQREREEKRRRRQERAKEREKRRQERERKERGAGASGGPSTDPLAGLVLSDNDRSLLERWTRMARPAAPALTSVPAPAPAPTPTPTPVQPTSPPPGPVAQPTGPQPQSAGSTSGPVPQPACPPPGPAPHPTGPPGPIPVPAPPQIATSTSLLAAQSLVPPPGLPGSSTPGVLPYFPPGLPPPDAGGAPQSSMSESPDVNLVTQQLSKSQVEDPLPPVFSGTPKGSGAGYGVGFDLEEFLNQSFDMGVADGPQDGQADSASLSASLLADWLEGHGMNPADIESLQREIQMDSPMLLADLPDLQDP
Chain of TGF-beta receptor type-2 (Homo sapiens) (P37173 whole entry): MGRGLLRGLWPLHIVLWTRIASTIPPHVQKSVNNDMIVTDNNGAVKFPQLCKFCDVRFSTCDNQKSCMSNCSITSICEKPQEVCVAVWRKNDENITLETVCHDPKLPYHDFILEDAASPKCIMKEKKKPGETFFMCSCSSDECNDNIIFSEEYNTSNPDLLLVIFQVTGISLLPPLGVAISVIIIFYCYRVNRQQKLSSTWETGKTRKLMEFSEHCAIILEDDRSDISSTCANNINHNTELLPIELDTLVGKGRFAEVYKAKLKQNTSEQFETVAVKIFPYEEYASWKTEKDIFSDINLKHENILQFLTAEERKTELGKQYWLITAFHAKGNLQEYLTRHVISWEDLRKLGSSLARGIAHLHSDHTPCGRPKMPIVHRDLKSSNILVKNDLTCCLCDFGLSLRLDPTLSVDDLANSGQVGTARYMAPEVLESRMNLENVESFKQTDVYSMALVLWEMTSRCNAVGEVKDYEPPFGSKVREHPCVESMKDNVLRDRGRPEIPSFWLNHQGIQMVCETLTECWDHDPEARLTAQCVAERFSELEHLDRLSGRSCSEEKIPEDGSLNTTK

In the case of `Cn1cc(-n2cnc3c(NCc4nc5cc(Cl)c(Cl)cc5[nH]4)nc(N4CCOCC4)nc32)cn1`, the % of inhibition in [1] is -29.8%.

In the case of `Cc1cc(F)c(C(=O)Nc2cccc(-c3nncn3C(C)C)n2)cc1-n1cnc(C2CC2)c1`, the values for the % of control in test [2] and in test [3] were 88% and 93%, respectively.

In turn, `CNC(=O)Nc1ccc(-c2nc(N3CC4CCC(C3)O4)c3cnn(C4CCC5(CC4)OCCO5)c3n2)cc1` came in with a % of control in test [4] of 100%. For the same compound, in test [5], the % of inhibition was 9%.

As to `CN(C)CCOc1ccc(-c2nc(-c3ccncc3)c(-c3ccc4c(c3)CC/C4=N\O)[nH]2)cc1`, the % of control in test [6] was 100%.

Regarding `CC(C)(O)[C@H](F)CN1Cc2cc(NC(=O)c3cnn4cccnc34)c(N3CCOCC3)cc2C1=O`, the dTM in [7] is 0.3 K.

For the compound `COc1cc(N(C)c2ccnc3ccc(C(F)(F)F)cc23)cc(OC)c1OC`, the % binding in test [8] worked out at 93%.

Consider `C=CC(=O)Nc1ccc(C(=O)Nc2[nH]nc3c2CN(C(=O)N[C@H](CN(C)C)c2ccccc2)C3(C)C)cc1`, for which the % of engagement in [9] turned out to be 1%.
